These results are taken from PubChem BioAssay (NCI).

Common to all, as to experiment: inhibition of tumour cell growth, NCI panel, 48 h
The subject of assay [1] is CCRF-CEM leukemia.
Assay [2] deals with DU-145 prostate.
Assay [3] has as its system MCF7 breast.
Assay [4] has as its system OVCAR-3 ovarian.
Assay [5] has as its system SF-539 CNS.
Assay [6] deals with SK-MEL-5 melanoma.
The test system of assay [7] is SN12C renal.
Assay [8] concerns T-47D breast.
The test system of assay [9] is UACC-257 melanoma.
For assay [10], the system named is A498 renal.

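Protocol summary: plate cells (96-well), add compound at 5 concentrations, incubate 48 h, interpolate endpoints linearly. The concentration for 50% growth inhibition is given as GI50. TGI marks complete inhibition of growth.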 Peptide text beside a SMILES is read from it. * marks the point of attachment. OSu = O=C1CCC(=O)N1O*; OBn = c1ccc(CO*)cc1; Bn = c1ccc(C*)cc1

Take `O=C1C=C(NCCc2cc(Br)c(O)c(Br)c2)C(=O)c2[nH]cnc21`: the TGI was 41.7 µM in assay [1]; > 100 µM in assay [2]; 48.9 µM in assay [3]; > 100 µM in assay [4]; > 100 µM in assay [5]; 29 µM in assay [6]. In addition, the TGI in assay [7] is > 100 µM; in assay [8], 88.8 µM; in assay [9], 44.4 µM.

As for `CCc1cc2c(oc3c4ccccc4ccc23)c(=O)[nH]1`, the TGI in assay [1], in assay [2], in assay [3], in assay [4], in assay [5] and in [9] was > 10 µM each time.

As for `Cc1cnc2[nH]c(-c3cccc(Cl)c3)cc(=O)c2c1`, the TGI in [10] is > 100 µM; in [1] it was > 100 µM; in assay [2], > 57.8 µM; in [3] it was > 100 µM; in assay [4], 0.0755 µM; in assay [5], 0.0658 µM. The TGI in assay [6] was 16 µM; in assay [7], > 100 µM; in [9] it was > 100 µM.

Regarding `O=[N+]([O-])c1cc(Cl)ccc1S(=O)(=O)c1cc(Cl)cc2c1NCCC2`, the TGI in assay [10], in assay [1], in [2], in [3], in [4] and in [5] was > 100 µM throughout. Besides, the results for the TGI in assay [6], in assay [7] and in [9] were 43.7 µM, > 100 µM and 64.8 µM, respectively.

With `COc1ccc(/C=C/C(c2cc(OC)c(OC)c(OC)c2)n2cncn2)cc1O` (stereo not given), the GI50 is 3.13 µM in assay [10]; 0.032 µM in assay [1]; 0.033 µM in assay [3]; 0.0458 µM in [6]; 7.19 µM in assay [7]; > 100 µM in [8]. The GI50 in assay [9] is > 100 µM. For the same compound, the TGI is 9.09 µM in [10]; > 100 µM in assay [1]; > 100 µM in assay [3]; 35.4 µM in assay [6]; > 100 µM in assay [7]; > 100 µM in assay [8]. In addition, the TGI in assay [9] was > 100 µM.

Consider `O=C(NC(CO)CO)c1ccc2cc(C(=O)N3CC(CCl)c4ccc([N+](=O)[O-])cc43)[nH]c2c1` (stereo not given), for which the TGI in assay [1], in assay [2], in assay [3], in assay [4], in [5] and in assay [6] was > 100 µM in each case. Further, the TGI was > 100 µM in assay [7], 64.2 µM in [8] and > 100 µM in assay [9].

With `CC(=O)C(C(=O)C(C)(C)C)C(=O)C(C)(C)C`, the TGI in assay [1], in assay [2], in assay [3], in assay [5], in assay [6] and in assay [7] was > 100 µM each time. Besides, the TGI in assay [8] and in assay [9] was > 100 µM in each case.

Take `CC(CC(C)(C)[N+](C)(C)C)[N+](C)(C)C` (stereo not given): the TGI in assay [1], in assay [2], in assay [3], in [4], in [5] and in assay [6] was > 100 µM each time. In addition, the TGI in assay [7] and in [9] was > 100 µM throughout.

Take `Cc1nc2sccn2c1C(=O)OCCOCCOCCOCCOC(=O)c1c(C)nc2sccn12`: the TGI was > 100 µM in assay [10]; > 100 µM in [2]; > 100 µM in assay [3]; > 100 µM in assay [4]; > 100 µM in assay [5]; 35.5 µM in assay [6]. For the same compound, the TGI in assay [7] and in assay [9] was > 100 µM in each case.

Consider `Cc1ccc(C2(c3ccc(C)c(O)c3C)CCN(C)CC2)c(C)c1O`, for which the TGI in assay [10], in assay [1], in assay [2], in assay [4], in assay [6] and in assay [7] was > 100 µM in each case. Also, the TGI in [8] is > 100 µM; in assay [9] it was 35.3 µM.

On to `Clc1cccc(N=C/C=C/Nc2cccc(Cl)c2)c1`, for which the TGI in assay [10] was determined as 49.7 µM; in assay [2], 96.2 µM; in [3] it was 43.6 µM; in [4], 45.4 µM; in assay [5] it was 34.2 µM; in [6], 44 µM. In addition, the TGI in assay [7] is 27 µM; in [9] it was 32.2 µM.

`C/C(NC(=O)c1ccccc1)=C(/C(=O)c1ccccc1)[C@@H]1OC(C)(C)O[C@@H]1[C@H]1COC(C)(C)O1`: the TGI in assay [10] is > 100 µM; in assay [2], > 100 µM; in [3], > 100 µM; in assay [4], > 100 µM; in assay [5], > 100 µM; in [6], 35.6 µM. Also, the TGI in assay [7] is 60.4 µM; in [9], > 100 µM.

As for `CC(C)CC(NC(=O)C(N)CCC(=O)OCc1ccccc1)C(=O)NC(COCc1ccccc1)C(=O)NC(Cc1ccccc1)C(=O)ON1C(=O)CCC1=O` (stereo not given) (H-E(OBn)LS(Bn)F-OSu; configuration not given here), the TGI in [1] was 82.1 µM; in assay [2], > 100 µM; in [3], 78.5 µM; in [6], 35.8 µM; in assay [7], > 100 µM; in [9], 66.1 µM.

For the compound `S=C1CSc2c(cnc3ccccc23)N1`, the TGI in assay [1], in assay [2], in [3], in [4], in [6] and in assay [7] was > 100 µM throughout. Further, the TGI in assay [8] and in assay [9] was > 100 µM throughout.

As for `COc1c(Cl)c(Cl)c(OC)c2c1C(=O)C=CC2=O`, the TGI was > 100 µM in [10]; 53.5 µM in assay [1]; 31.6 µM in assay [4]; 41.2 µM in assay [5]; > 100 µM in [6]; 62.2 µM in assay [7]. In assay [9], this compound gave a TGI of 35.4 µM.
